# System: ncRNAs (SEQ ID NO 28-89)
# Test: ncRNA arrays of melanocytes, keratinocytes, normal skin, melanoma cell lines and patient samples
# Parameters: species or system human
# Settings: for ncRNA array expression, patient 2: melanoma patient 2 sample compared to normal skin; for ncRNA array expression, patient 3: melanoma patient 3 sample compared to normal skin; for ncRNA array expression, patient 4: melanoma patient 4 sample compared to normal skin; for ncRNA array expression, patient 5: melanoma patient 5 sample compared to normal skin; for ncRNA array expression, patient 6: melanoma patient 6 sample compared to normal skin; for ncRNA array expression, patient 7: melanoma patient 7 sample compared to normal skin; for ncRNA array expression, patient 8: melanoma patient 8 sample compared to normal skin; for ncRNA array expression, patient 9: melanoma patient 9 sample compared to normal skin; for ncRNA array expression, patient 10: melanoma patient 10 sample compared to normal skin; for ncRNA array expression, patient 19: melanoma patient 19 sample compared to normal skin; for ncRNA array expression, patient 20: melanoma patient 20 sample compared to normal skin; for ncRNA array expression, patient 21: melanoma patient 21 sample compared to normal skin; for ncRNA array expression, patient 22: melanoma patient 22 sample compared to normal skin; for ncRNA array expression, patient 23: melanoma patient 23 sample compared to normal skin; for ncRNA array expression, patient 24: melanoma patient 24 sample compared to normal skin; for ncRNA array expression, patient 25: melanoma patient 25 sample compared to normal skin; for ncRNA array expression, patient 26: melanoma patient 26 sample compared to normal skin; for ncRNA array expression, patient 27: melanoma patient 27 sample compared to normal skin; for ncRNA array expression, patient 28: melanoma patient 28 sample compared to normal skin; for ncRNA array expression, patient 29: melanoma patient 29 sample compared to normal skin; for ncRNA array expression, patient 30: melanoma patient 30 sample compared to normal skin
# How it was run: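 Differential ncRNA expression was defined against melanocytes or normal skin after subtracting keratinocyte-specific signals, with confirmation by qRT-PCR and Northern blot. Samples were melanoma cell lines, patient tumours, melanocytes, keratinocytes and normal skin, hybridised to a >10,000-probe (>200 nt) ncRNA array that also carries RefSeq mRNA probes.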
Substance,"ncRNA array expression, patient 2","ncRNA array expression, patient 3","ncRNA array expression, patient 4","ncRNA array expression, patient 5","ncRNA array expression, patient 6","ncRNA array expression, patient 7","ncRNA array expression, patient 8","ncRNA array expression, patient 9","ncRNA array expression, patient 10","ncRNA array expression, patient 19","ncRNA array expression, patient 20","ncRNA array expression, patient 21","ncRNA array expression, patient 22","ncRNA array expression, patient 23","ncRNA array expression, patient 24","ncRNA array expression, patient 25","ncRNA array expression, patient 26","ncRNA array expression, patient 27","ncRNA array expression, patient 28","ncRNA array expression, patient 29",also measured
"SEQ ID NO 75 (CAAGTGGGAAGAAAAAGAGCCCTACGTGGTGACATTCTGGAAGGATATCATGGATGATTG; listed as DNA, chemistry not given here; listed as Homo sapiens)",0.5875,0.2177,1.062,1.072,1.853,2.114,2.605,1.117,0.6968,1.219,2.945,1.592,1.681,1.545,2.209,−0.3024,0.226,3.291,1.546,2.221,"ncRNA array expression, patient 30: −1.4645"
"SEQ ID NO 55 (CCTCTCCCCTTCTTGCAAAAAATATTCTATATTCAAGTTTAGGAGAAAACAGAATACTTG; listed as DNA, chemistry not given here; listed as Homo sapiens)",−1.54,−1.638,−1.747,−1.565,−1.135,−1.9789,−1.065,−2.029,−1.191,−1.029,−1.812,−2.321,−1.439,−1.275,−1.478,−2.11,−2.186,−2.019,−2.043,−2.155,"ncRNA array expression, patient 30: −0.5021"
"SEQ ID NO 68 (CAAAAAGAAATCTTGTTTACTTGTAAAAATATAGACTACCTCCTACTTGCCACCGTTAAG; listed as DNA, chemistry not given here; listed as Homo sapiens)",−1.029,−0.899,−1.233,−1.828,−0.6441,−2.078,−0.8097,−1.121,−1.445,−0.5985,−1.379,−1.385,−0.8953,−0.7105,−1.38,−1.607,−1.329,−1.5151,−1.556,−1.309,"ncRNA array expression, patient 30: −0.1058"
"SEQ ID NO 64 (TTGCCTAGGAACAAAGAAGGCTTGTGAGGAGATCAAGGAACTTACATGAAATTGTAGGAA; listed as DNA, chemistry not given here; listed as Homo sapiens)",2.496,1.673,4.824,1.546,1.8,1.389,2.2638,1.339,2.481,0.2184,2.311,2.601,1.302,0.9911,2.424,2.502,2.729,2.69,2.932,1.473,"ncRNA array expression, patient 30: −2.097"
"SEQ ID NO 88 (CTGTTGCTTATTCTGGGAGCCCAATCCTAGGCTGAGGGAGGTGGGCGCGGGGCTGTTTAA; listed as DNA, chemistry not given here; listed as Homo sapiens)",−1.501,−1.118,−1.158,−1.192,−0.882,−1.165,−1.206,−1.551,−1.883,−0.5619,−1.6443,−1.527,−0.8009,−0.3034,−1.128,−1.933,−1.942,−2.173,−1.861,−2.1207,"ncRNA array expression, patient 30: 0.7208"
"SEQ ID NO 80 (CACACAGCCCAGTCTGCCTGTGATGGTAATATAAATCAAACCAGGGACCCAAGAGCCCAG; listed as DNA, chemistry not given here; listed as Homo sapiens)",−1.594,−1.487,−1.4489,−1.208,−0.982,−1.213,−1.338,−1.383,−1.815,−1.234,−2.056,−1.5287,−0.7073,−0.1143,−1.175,−1.992,−1.983,−1.665,−1.4589,−1.489,"ncRNA array expression, patient 30: 0.1296"
"SEQ ID NO 42 (TAGACATAGGTTAGAGGGGGAACAGTGCTTAAAATTCCATGGAACTAAGATTTTTTTTAT; listed as DNA, chemistry not given here; listed as Homo sapiens)",−1.5031,−1.941,−1.837,−1.916,−1.445,−1.996,−2.073,−1.562,−0.8067,−2.231,−1.775,−1.59,−1.26,−0.1085,−1.66,−1.5976,−1.684,−1.038,−1.339,−0.5812,"ncRNA array expression, patient 30: 1.333"
"SEQ ID NO 63 (CTCACACGCACCCTTTCACTGTTTCTTAGTAATTTGTTTGTCTACAGACACAGACGGGAA; listed as DNA, chemistry not given here; listed as Homo sapiens)",−1.694,−1.565,−1.396,−1.315,−0.5921,−1.305,−1.26,−1.429,−1.417,−1.154,−1.232,−1.397,−0.3562,−0.04699,−1.093,−2.099,−2.008,−1.525,−1.601,−1.862,"ncRNA array expression, patient 30: 1.622"
